According to patent US9597315B2, “1-heteroaryl-3-azabicyclo[3.1.0]hexanes, methods for their preparation and their use as medicaments” (EUTHYMICS BIOSCIENCE, INC., priority 2007, dated 2017):

What was measured:
Type in all cases: cell-based
[1] = target: T1, human DA transporter (Homo sapiens, UniProt Q01959); test: Inhibition of [3H]DA uptake in cells expressing the recombinant human DA transporter; details: CHO-K1 cells expressing the DA transporter; for inhibition at 1 µM: 1 μM compound, read-out: Uptake inh. % at 1 μM DA
T1 construct: expressed in transfected cells; host or cells: CHO-K1 cells
T1 sequence (Q01959 whole entry): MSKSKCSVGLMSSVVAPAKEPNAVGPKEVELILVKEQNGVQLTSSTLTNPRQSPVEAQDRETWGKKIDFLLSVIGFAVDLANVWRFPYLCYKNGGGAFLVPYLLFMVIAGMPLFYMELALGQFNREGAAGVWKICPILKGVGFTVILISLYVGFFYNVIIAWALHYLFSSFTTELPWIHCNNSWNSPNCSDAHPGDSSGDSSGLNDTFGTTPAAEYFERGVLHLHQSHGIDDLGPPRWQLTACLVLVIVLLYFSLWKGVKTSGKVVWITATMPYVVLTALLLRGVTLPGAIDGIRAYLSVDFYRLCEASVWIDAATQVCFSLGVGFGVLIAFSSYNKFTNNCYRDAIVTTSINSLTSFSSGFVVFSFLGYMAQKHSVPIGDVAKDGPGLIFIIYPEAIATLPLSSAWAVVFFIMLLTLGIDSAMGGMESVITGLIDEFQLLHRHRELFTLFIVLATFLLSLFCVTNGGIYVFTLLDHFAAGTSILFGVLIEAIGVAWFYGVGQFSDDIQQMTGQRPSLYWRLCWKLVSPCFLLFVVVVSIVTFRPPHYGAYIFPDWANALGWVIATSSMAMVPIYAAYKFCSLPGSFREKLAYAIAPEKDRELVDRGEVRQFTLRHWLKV
Protocol: (§1) The ability of the 1-heteroaryl-3-azabicyclo[3.1.0.]hexane of the invention for inhibiting transport of norepinephrine (NE) and/or dopamine (DA) and/or serotonin (5-HT) were evaluated using cell lines (such as the HEK 293 cell line) that stably express recombinant human NE, DA, and 5-HT transporters, respectively. The techniques for stably transfecting mammalian cell lines with neurotransmitter transporters and measuring the effects of drugs on amine uptake have been described in the literature (e.g., Gu, H., et al. J. Biol. Chem. 269:7124-7130, 1994; Eshleman A J, J Pharmacol Exp Ther 289:877-885, 1999) and well known to those skilled in the art.
(§2) A basic technique for measuring the ability of a compound to inhibit [^3H]NE, DA, and 5-HT uptake in cell lines recombinantly expressing human transporters has been described (Eshleman, et al., 1999). In brief, cell suspensions (HEK 293 cells expressing the 5-HT transporter; MDCK cells expressing the NE transporter, and CHO-K1 cells expressing the DA transporter, respectively) can be prepared for assay by removing the medium from cells grown on tissue culture dishes, then washing the plates with buffered medium. Cells can then be gently scraped from the plates and cell clusters separated by trituration with a pipette for 5-10 aspiration/ejection cycles. To these cell suspensions were added test drugs (final concentrations generally from 0.01-5 μM) and Tris/Hepes buffer, pH 7.1 (also containing 120 mM NaCl, 1.2 mM CaICl2, 1.2 mM MgSO4, 5 mM D-glucose, and 1 mM ascorbic acid). Following a preincubation of the isolated cells at 25° C., either [^3H]DA, [^3H]5-HT, or [^3H]NE was added and the incubation continued an additional 10 minutes. Radiolabelled neurotransmitter uptake was terminated by vacuum filtration and washing through Whatman glass fiber filters (GF/C), and the radioactivity retained on the filters was measured by liquid scintillation spectrometry. Specific uptake was defined as the difference in uptake observed in the absence and presence of a large molar excess of nomifensine, desipramine, or fluoxetine (for [^3H]DA, [^3H]NE or [^3H]5-HT, respectively].
(§3) The results of these assays are shown in Table 2, below, which indicates, for each of the exemplary compounds, the structure of the substituent, and levels of observed uptake inhibition percentage for each of the indicated neurotransmitters at a fixed concentration of compound, or the IC50 value, defined as that concentration of compound necessary to inhibit uptake by 50%. These are standard terms known to those skilled in the art.

[2] = target: T2, human NE transporter (Homo sapiens, UniProt P23975); test: Inhibition of [3H]NE uptake in cells expressing the recombinant human NE transporter; details: MDCK cells expressing the NE transporter; for inhibition at 1 µM: 1 μM compound, read-out: Uptake inh. % at 1 μM NE
T2 construct: expressed in transfected cells; host or cells: MDCK cells
T2 sequence (P23975 whole entry): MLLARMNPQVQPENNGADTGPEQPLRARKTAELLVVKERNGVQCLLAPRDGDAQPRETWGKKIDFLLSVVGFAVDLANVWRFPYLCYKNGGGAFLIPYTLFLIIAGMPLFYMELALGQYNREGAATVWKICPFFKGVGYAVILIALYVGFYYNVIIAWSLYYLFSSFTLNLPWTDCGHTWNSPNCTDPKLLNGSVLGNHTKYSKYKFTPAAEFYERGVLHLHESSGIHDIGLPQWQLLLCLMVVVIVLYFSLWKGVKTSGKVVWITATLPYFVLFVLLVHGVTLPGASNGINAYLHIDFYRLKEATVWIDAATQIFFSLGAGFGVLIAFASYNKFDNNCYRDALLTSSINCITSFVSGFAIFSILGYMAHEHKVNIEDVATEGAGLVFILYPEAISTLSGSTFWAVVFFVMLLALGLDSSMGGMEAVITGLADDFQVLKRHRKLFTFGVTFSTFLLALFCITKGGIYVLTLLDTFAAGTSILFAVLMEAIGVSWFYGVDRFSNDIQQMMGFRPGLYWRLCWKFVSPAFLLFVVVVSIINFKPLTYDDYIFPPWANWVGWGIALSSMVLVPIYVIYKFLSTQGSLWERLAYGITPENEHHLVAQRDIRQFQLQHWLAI
Protocol: as §1, §2, §3

[3] = target: T3, human 5-HT transporter (Homo sapiens, UniProt P31645); test: Inhibition of [3H]5-HT uptake in cells expressing the recombinant human 5-HT transporter; details: HEK 293 cells expressing the 5-HT transporter; for inhibition at 1 µM: HEK293, 1 μM compound, read-out: Uptake inh. % at 1 μM 5-HT
T3 construct: expressed in transfected cells; host or cells: HEK 293 cells
T3 sequence (P31645 whole entry): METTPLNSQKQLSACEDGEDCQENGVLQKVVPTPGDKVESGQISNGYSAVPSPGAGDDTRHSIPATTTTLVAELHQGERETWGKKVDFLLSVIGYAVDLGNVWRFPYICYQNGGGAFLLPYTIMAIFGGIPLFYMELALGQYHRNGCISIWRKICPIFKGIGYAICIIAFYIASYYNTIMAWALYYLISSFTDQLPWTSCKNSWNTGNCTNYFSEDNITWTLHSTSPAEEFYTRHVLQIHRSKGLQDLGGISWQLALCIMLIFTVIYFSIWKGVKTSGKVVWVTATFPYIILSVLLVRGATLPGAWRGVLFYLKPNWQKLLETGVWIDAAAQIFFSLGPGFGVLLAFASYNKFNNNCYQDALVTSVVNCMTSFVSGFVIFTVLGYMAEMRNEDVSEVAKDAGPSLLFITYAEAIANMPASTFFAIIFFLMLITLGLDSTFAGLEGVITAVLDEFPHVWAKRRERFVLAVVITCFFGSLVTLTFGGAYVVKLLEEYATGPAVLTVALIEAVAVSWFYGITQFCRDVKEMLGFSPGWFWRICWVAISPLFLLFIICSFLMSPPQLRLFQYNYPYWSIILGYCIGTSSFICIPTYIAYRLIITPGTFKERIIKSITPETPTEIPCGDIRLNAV
Protocol: as §1, §2, §3

## c1ccc2ncc(C34CNCC3C4)cc2c1 (stereo not drawn)
[1]
  inhibition at 1 µM: 10%
[2]
  inhibition at 1 µM: 64%
[3]
  inhibition at 1 µM: 14%

## Cc1ccc(C23CNCC2C3)s1 (stereo not drawn)
[1]
  inhibition at 1 µM: 20%
[2]
  inhibition at 1 µM: 59%
[3]
  inhibition at 1 µM: 35%

## CN1CC2CC2(c2ccc3ncccc3c2)C1 (stereo not drawn)
[1]
  inhibition at 1 µM: 12%
[2]
  inhibition at 1 µM: 13%
[3]
  inhibition at 1 µM: 93%

## c1ccc2c(C34CNCC3C4)coc2c1 (stereo not drawn)
[1]
  inhibition at 1 µM: 63%
  IC50: 770 nM
[2]
  inhibition at 1 µM: 77%
  IC50: 82 nM
[3]
  inhibition at 1 µM: 57%
  IC50: 188 nM

## CN1CC2CC2(c2cc3ccccc3n2C)C1 (stereo not drawn)
[1]
  inhibition at 1 µM: 19%
[2]
  inhibition at 1 µM: 35%
[3]
  inhibition at 1 µM: 64%

## CCN1CC2CC2(c2cc3ccccc3n2C)C1 (stereo not drawn)
[1]
  inhibition at 1 µM: 32%
[2]
  inhibition at 1 µM: 29%
[3]
  inhibition at 1 µM: 65%

## CN1CC2CC2(c2coc3ccccc23)C1 (stereo not drawn)
[1]
  inhibition at 1 µM: 67%
  IC50: 475 nM
[2]
  inhibition at 1 µM: 82%
  IC50: 138 nM
[3]
  inhibition at 1 µM: 45%
  IC50: 1450 nM

## c1cnc2ccc(C34CNCC3C4)cc2c1 (stereo not drawn)
[1]
  inhibition at 1 µM: 17%
[2]
  inhibition at 1 µM: 68%
[3]
  inhibition at 1 µM: 63%

## Fc1ccc2sc(C34CNCC3C4)cc2c1 (stereo not drawn)
[1]
  inhibition at 1 µM: 78%
[2]
  inhibition at 1 µM: 91%
[3]
  inhibition at 1 µM: 98%

## Clc1ccc2scc(C34CNCC3C4)c2c1 (stereo not drawn)
[1]
  inhibition at 1 µM: 13%
[2]
  inhibition at 1 µM: 50%
[3]
  inhibition at 1 µM: 18%

## CN1CC2CC2(c2cc3cc(F)ccc3s2)C1 (stereo not drawn)
[1]
  inhibition at 1 µM: 63%
[2]
  inhibition at 1 µM: 70%
[3]
  inhibition at 1 µM: 94%

## CC(C)N1CC2CC2(c2cc3ccccc3n2C)C1 (stereo not drawn)
[1]
  inhibition at 1 µM: 7%
[2]
  inhibition at 1 µM: 13%
[3]
  inhibition at 1 µM: 83%

## Fc1ccc2cc(C34CNCC3C4)sc2c1 (stereo not drawn)
[1]
  inhibition at 1 µM: 99%
[2]
  inhibition at 1 µM: 98%
[3]
  inhibition at 1 µM: 100%

## CN1CC2CC2(c2ccc3c(ccn3C)c2)C1 (stereo not drawn)
[1]
  inhibition at 1 µM: 45%
  IC50: 811 nM
[2]
  inhibition at 1 µM: 53%
  IC50: 186 nM
[3]
  inhibition at 1 µM: 71%
  IC50: 154 nM

## CN1CC2CC2(c2cc3ccc(F)cc3s2)C1 (stereo not drawn)
[1]
  inhibition at 1 µM: 94%
[2]
  inhibition at 1 µM: 88%
[3]
  inhibition at 1 µM: 99%

## CN1C[C@H]2C[C@@]2(c2cc3ccccc3s2)C1
[1]
  inhibition at 1 µM: 82%
  IC50: 224 nM
[2]
  inhibition at 1 µM: 89%
  IC50: 71 nM
[3]
  inhibition at 1 µM: 99%
  IC50: 54 nM

## CN1CC2CC2(c2cc3ccccc3o2)C1 (stereo not drawn)
[1]
  IC50: 630 nM
[2]
  IC50: 400 nM
[3]
  IC50: 340 nM

## c1ccc2sc([C@]34CNC[C@H]3C4)cc2c1
[1]
  inhibition at 1 µM: 90%
  IC50: 52 nM
[2]
  inhibition at 1 µM: 97%
  IC50: 14 nM
[3]
  inhibition at 1 µM: 96%
  IC50: 193 nM

## CCN1CC2CC2(c2ccc3c(ccn3C)c2)C1 (stereo not drawn)
[1]
  inhibition at 1 µM: 65%
  IC50: 215 nM
[2]
  inhibition at 1 µM: 39%
  IC50: 138 nM
[3]
  inhibition at 1 µM: 59%
  IC50: 308 nM

## c1ccc2sc(C34CNCC3C4)cc2c1 (stereo not drawn)
[1]
  inhibition at 1 µM: 91%
  IC50: 82 nM
[2]
  inhibition at 1 µM: 90%
  IC50: 20 nM
[3]
  inhibition at 1 µM: 66%
  IC50: 88 nM

## c1ccc2sc(C34CNCC3C4)nc2c1 (stereo not drawn)
[1]
  inhibition at 1 µM: 5%
[2]
  inhibition at 1 µM: 72%
[3]
  inhibition at 1 µM: 7%

## c1ccc2sc([C@@]34CNC[C@H]3C4)cc2c1
[1]
  inhibition at 1 µM: 90%
  IC50: 149 nM
[2]
  inhibition at 1 µM: 84%
  IC50: 99 nM
[3]
  inhibition at 1 µM: 76%
  IC50: 481 nM

## CN1C[C@H]2C[C@]2(c2cc3ccccc3s2)C1
[1]
  inhibition at 1 µM: 83%
  IC50: 195 nM
[2]
  inhibition at 1 µM: 75%
  IC50: 107 nM
[3]
  inhibition at 1 µM: 89%
  IC50: 263 nM

## CN1CC2CC2(c2cc3ccccc3s2)C1 (stereo not drawn)
[1]
  inhibition at 1 µM: 88%
  IC50: 98 nM
[2]
  inhibition at 1 µM: 71%
  IC50: 60 nM
[3]
  inhibition at 1 µM: 92%
  IC50: 34 nM

## CN1CC2CC2(c2csc3ccc(Cl)cc23)C1 (stereo not drawn)
[1]
  inhibition at 1 µM: 1%
[2]
  inhibition at 1 µM: 39%
[3]
  inhibition at 1 µM: 50%
